Publication PMC9399588, “Effect of fluconazole on the pharmacokinetics of a single dose of fedratinib in healthy adults” (Cancer Chemotherapy and Pharmacology, 2022)
Values joined by “and” are separate entries in the source; they are usually repeats but may differ in a detail not shown here. Equal values may be shown once. Read-outs that look alike come from different tables or passages of the source.

What was measured:
[1] = cited from earlier work
myelofibrosis = system: myelofibrosis; set-up: method as in PMID 34331348; conditions: double-blind Phase 3, NCT01437787; cited from earlier work
[2] = set-up: method as in PMID 32886148; conditions: PBPK simulations; cited from earlier work
CYP3A4 (liver) = system: CYP3A4 (liver); set-up: method as in PMID 32886148; conditions: after first dose of 400 mg once-daily fedratinib, healthy participants; cited from earlier work
[3] = in vivo; cited from earlier work
[4] = set-up: method as in PMID 34019108; conditions: healthy adults; cited from earlier work
[5] = set-up: method as in PMID 32748109; conditions: healthy adult men, oral dose of [14C]-fedratinib 200 mg; cited from earlier work
CYP2C19 (liver) = system: CYP2C19 (liver); set-up: method as in PMID 32886148; conditions: after first dose of 400 mg once-daily fedratinib, healthy participants; cited from earlier work
CYP3A4 = system: CYP3A4; set-up: method as in PMID 32886148; conditions: 0.1 μM fedratinib, different hepatocyte preparations; cited from earlier work
[6] = Phase 1 fixed-sequence drug-drug interaction study: plasma pharmacokinetics of single-dose fedratinib with and without fluconazole; assay type: in vivo, human; conditions: for Vd/F: read-out: Vz/F, geometric mean (geometric CV%); for half-life: read-out: t1/2 (terminal elimination), geometric mean (geometric CV%) (converted)
From the text: This was an open-label Phase 1 study to evaluate the effect of multiple doses of fluconazole on the PK, safety, and tolerability of a single dose of fedratinib in healthy adult participants (NCT04702464). Healthy men and women aged 18–65 years with body mass index (BMI) ≥ 18 and ≤ 33 kg/m^2 at screening were enrolled at one site in the USA. Participants were confirmed to be healthy based on medical history, physical examination, clinical laboratory test results, vital signs, and 12-lead electrocardiogram (ECG) at screening and check-in (day − 1). Aspartate aminotransferase, alanine aminotransferase, and total bilirubin must have been at or below the upper limit of the reference range on or before check-in (day − 1). Other clinical parameters and laboratory results were either within normal range or deemed not clinically significant by the investigator. Women of childbearing potential were required to have a negative pregnancy test result and to use birth control.
This was a non-randomized, fixed-sequence, open-label study consisting of a screening phase, treatment phase (including baseline), and follow-up telephone call (Fig. 1). The fixed-sequence crossover design of this study was selected to remove intersubject variability from comparison between treatments. Healthy participants were chosen to mitigate the potential confounding effects of disease state or other concomitant medications likely to be present in a population of patients with myelofibrosis.
Participants resided at the clinical site from day − 1 to day 27. A single oral dose of fedratinib 100 mg was administered under fasted conditions on day 1. Participants received fluconazole 400 mg on day 10 and fluconazole 200 mg once daily on days 11–23. On day 18, participants received a single oral dose of fedratinib 100 mg, under fasted conditions, with fluconazole 200 mg. No food or beverages (except water) were allowed for at least 4 h after dosing; water was allowed as desired except for 1 h before and 1 h after each dose. Participants received ondansetron 8 mg by mouth approximately 1 h before each fedratinib administration to reduce the potential for fedratinib-related nausea and vomiting, with the option of a subsequent oral dose(s) of ondansetron as necessary. Fluconazole is not expected to have a clinically meaningful impact on the PK of ondansetron as ondansetron is metabolized by multiple enzymes including CYP1A1/2, CYP3A4, and CYP2D6 [28]. […] Participants were discharged from the clinical site on day 27 and received a follow-up telephone call 4 days (± 2 days) after discharge. In the event that participants discontinued the study for any reason, an early termination (ET) visit was performed. Only safety assessments scheduled for the day of discharge were performed at the ET visit. Participants who discontinued the study also received a follow-up telephone call 4 days (± 2 days) after discharge. Participants who discontinued the study due to inclement weather returned to the clinic to complete the ET visit at a later date.
On days 1 and 18, blood samples for determination of fedratinib plasma concentrations were collected before each dose and 0.5, 1, 1.5, 2, 3, 4, 6, 8, 12, 24, 48, 72, 120, 168, and 216 h post-dose. Plasma fedratinib concentrations were measured using a validated liquid chromatography–tandem mass spectrometry assay with a lower limit of quantification (LLOQ) of 1.00 ng/mL [19].
Plasma PK parameters were calculated using noncompartmental methods. The PK parameters determined for fedratinib were maximum observed plasma concentration (Cmax), time to Cmax (Tmax), AUC from time 0 to the time of the last quantifiable concentration (AUC0–t), AUC from time 0 to infinity (AUC0–∞), terminal elimination t1/2, apparent total plasma clearance (CL/F), and apparent total volume of distribution during the terminal phase (Vz/F). […]

[7] = Safety and tolerability assessment (adverse event monitoring) in the Phase 1 study; assay type: in vivo, human
Description: Safety assessments included adverse event (AE) monitoring, review of concomitant medications and procedures, physical examinations, vital signs measurements, 12-lead ECGs, and clinical laboratory safety tests. All AEs were recorded from the time of informed consent until study completion, and up to 30 days after the last dose of fluconazole if reported to the investigator.

[8] = set-up: method as in PMID 32248324; conditions: cited from earlier work
[9] = set-up: method as in PMID 12867217; conditions: cited from earlier work
[10] = set-up: method as in PMID 31324935; conditions: cited from earlier work
[11] = compared with fedratinib alone, single oral dose 100 mg
[12] = fedratinib 100 mg + fluconazole 200 mg once daily (test) vs fedratinib 100 mg (reference)
[13] = healthy men, single dose fedratinib 300 mg with ketoconazole vs alone

## Cc1cnc(Nc2ccc(OCCN3CCCC3)cc2)nc1Nc1cccc(S(=O)(=O)NC(C)(C)C)c1 [fedratinib]
[1]
  Effective t1/2: around 40 h
  Terminal elimination half-life (t1/2): around 114 h
[1]; healthy participants and patients with myelofibrosis
  Effective t1/2: ~ 40 h
myelofibrosis
  Proportion of patients reaching primary (≥ 35% reduction in spleen volume) and secondary (≥ 50% reduction in symptom score) endpoints vs placebo: greater proportion
[2]
  Predicted increase in fedratinib exposure on coadministration of fluconazole (dual CYP2C19 and CYP3A4 inhibitor) vs fedratinib alone: up to a fourfold increase
CYP3A4 (liver)
  Mean fraction of metabolism or excretion in relation to systemic clearance: 64%
[3]
  Tolerability of single doses: generally well tolerated
[4]
  Effect of CYP3A4 inducers rifampin and efavirenz on fedratinib exposure: decrease fedratinib exposure
[5]
  Share of total circulating drug in plasma accounted for by fedratinib: approximately 80%
CYP2C19 (liver)
  Mean fraction of metabolism or excretion in relation to systemic clearance: 16%
CYP3A4
  CYP3A4 share of the total CYP contribution to metabolism: 0–67%
[6]; Hodges–Lehmann estimate, 90% CI 0.00–1.00, p = 0.156
  Tmax median difference between fedratinib with fluconazole and fedratinib alone: 0.5 h
[6]; both sexes, human, plasma, oral, 100 mg fedratinib + 200 mg fluconazole once daily (test), n = 5, read-out: AUC0–∞, geometric mean from ANOVA model
  AUC(0-inf): 4100 ng·h/mL
[6]; both sexes, human, plasma, oral, 100 mg, 100 mg fedratinib (reference), n = 7, read-out: AUC0–∞, geometric mean from ANOVA model
  AUC(0-inf): 2410 ng·h/mL
[6]; both sexes, human, plasma, oral, 100 mg fedratinib (reference), n = 16, read-out: AUC0–t, geometric mean from ANOVA model
  AUC(0-t): 1900 ng·h/mL
[6]; both sexes, human, plasma, oral, 100 mg fedratinib (reference), n = 16, read-out: Cmax, geometric mean from ANOVA model
  Cmax: 121 ng/mL
[6]; both sexes, human, plasma, oral, 100 mg fedratinib + 200 mg fluconazole once daily (test), n = 16, read-out: Cmax, geometric mean from ANOVA model
  Cmax: 146 ng/mL
[6]; both sexes, human, plasma, oral, fedratinib 100 mg + fluconazole 200 mg once daily, n = 5, read-out: AUC0–∞, geometric mean (geometric CV%)
  AUC(0-inf): 4200 ng·h/mL
[6]; both sexes, human, plasma, oral, fedratinib 100 mg + fluconazole 200 mg once daily, n = 5
  Vd/F: 3560 L
[6]; both sexes, human, plasma, oral, fedratinib 100 mg + fluconazole 200 mg once daily, n = 16, read-out: AUC0–t, geometric mean (geometric CV%)
  AUC(0-t): 2970 ng·h/mL
[6]; both sexes, human, plasma, oral, fedratinib 100 mg + fluconazole 200 mg once daily, n = 16
  half-life: 138 h
[6]; both sexes, human, plasma, po, 100 mg, fedratinib 100 mg single oral dose alone, n = 7, read-out: AUC0–∞, geometric mean (geometric CV%)
  AUC(0-inf): 2360 ng·h/mL
[6]; both sexes, human, plasma, fedratinib 100 mg single oral dose + fluconazole 200 mg once daily, healthy adults, n = 16, read-out: Cmax, geometric mean (geometric CV%)
  Cmax: 146 ng/mL
[6]; both sexes, human, plasma, fedratinib 100 mg single oral dose alone, fasted, healthy adults, n = 16, read-out: Cmax, geometric mean (geometric CV%)
  Cmax: 121 ng/mL
[6]; both sexes, human, plasma, fedratinib 100 mg single oral dose alone, n = 7
  Vd/F: 6500 L
[6]; both sexes, human, plasma, fedratinib 100 mg single oral dose alone, n = 16, read-out: AUC0–t, geometric mean (geometric CV%)
  AUC(0-t): 1900 ng·h/mL
[6]; both sexes, human, plasma, fedratinib 100 mg single oral dose alone, n = 16, read-out: Tmax, median (min, max)
  Tmax: 2 h
[6]; both sexes, human, plasma, fedratinib 100 mg single oral dose alone, n = 16
  half-life: 125 h
[6]; [11]
  Increase in fedratinib AUC0–t on coadministration with fluconazole: 56%
  Increase in fedratinib Cmax on coadministration with fluconazole: 21%
[6]; [12]
  AUC0–t: ratio (%) of geometric LS means, test/reference (90% CI): 156% and 156 (145, 168) %
  Cmax: ratio (%) of geometric LS means, test/reference (90% CI): 121% and 121 (108, 135) %
[6]; fedratinib 100 mg + fluconazole 200 mg once daily (test, n = 5) vs fedratinib 100 mg (reference, n = 7)
  AUC0–∞: ratio (%) of geometric LS means, test/reference (90% CI): 170 (143, 202) %
[6]; fedratinib 100 mg + fluconazole 200 mg once daily, n = 5
  CL/F, geometric mean (geometric CV%): 23.8 (40.2) L/h
[6]; fedratinib 100 mg + fluconazole 200 mg once daily, n = 16
  Tmax, median (min, max): 2.00 (1.02, 6.00) h
[6]; fedratinib 100 mg single oral dose alone, n = 7
  CL/F, geometric mean (geometric CV%): 42.3 (21.9) L/h
[6]; in vivo
  Difference in terminal t1/2 of fedratinib alone vs in combination with fluconazole: no significant difference
[6]; observed in this study
  Increase in fedratinib exposure by fluconazole (in words): less than twofold increase
[6]; single oral dose, compared with fedratinib alone
  Increase in systemic exposure to fedratinib on coadministration with fluconazole: up to 56%
[7]; during treatment with fedratinib 100 mg alone, 3 participants
  Participants with treatment-emergent adverse events (TEAEs): 10.3%
[7]; during treatment with fedratinib 100 mg plus fluconazole 200 mg, 1 participant
  Participants with treatment-emergent adverse events (TEAEs): 6.3%
[7]; fedratinib 100 mg with or without fluconazole, healthy adults
  Tolerability of single oral doses: well tolerated
[8]
  Effect of ketoconazole coadministration on fedratinib Tmax: no effect on Tmax
[8]; [13]
  Increase in fedratinib AUC0–t by ketoconazole: 3.20 fold
  Increase in fedratinib Cmax by ketoconazole: 1.93 fold

## OC(Cn1cncn1)(Cn1cncn1)c1ccc(F)cc1F [fluconazole]
[7]; during treatment with fluconazole 200 mg alone, 2 participants
  Participants with treatment-emergent adverse events (TEAEs): 7.4%

## Cc1nccn1CC1CCc2c(c3ccccc3n2C)C1=O (stereo not drawn) [ondansetron]
[9]
  Change in AUC on coadministration with the moderate CYP3A inhibitor aprepitant: no clinically significant change

## N#CC[C@H](C1CCCC1)n1cc(-c2ncnc3[nH]ccc23)cn1 [ruxolitinib]
[10]
  Increase in exposure on coadministration with fluconazole: 234%
